“Also recorded” adds a separate entry of the source.

One data set has as its system mES cells. Description: Ratiometric SAM imaging in mES cells. It counts as cell-based, Mouse. Particulars: 30 mM cycloleucine, +2i and −2i media, sensor 4-2.
Another data set has as its system HCT116 cells. Description: Ratiometric SAM imaging in HCT116 cells. It counts as cell-based. Particulars: 30 mM cycloleucine, sensor 5-1. The procedure:
The control constitutively fluorescent Squash was not affected by withdrawal of threonine and methionine. Scale bar, 20 μm. […] Overall, low cell-to-cell variation was seen (n=8 cells from three separate experiments). […] The rate of SAM drop was slower than the rate in cells cultured in +2i (n=8 cells from three separate experiments). […] SAM levels were measured at 20 minute time intervals after methionine withdrawal and after methionine (100 μM) addition. Cells indicated with a white arrow start with a very high level of SAM and show a slow drop in SAM levels over time, indicating low SAM utilization. Scale bar, 20 μm. […]
5-1 was used because it has higher dynamic range. […] To test if this also holds in HCT116 cells, Squash-SAM sensor 5-1 was expressed in HCT116 cells and SAM level was monitored after threonine depletion. […] To test this, Squash-SAM sensor 5-1 was expressed in HCT116 cells and SAM levels were monitored for 240 minutes after depleting both threonine and methionine. […] The average cellular ratio of O/G fluorescence was quantified for these cells at 15 minute intervals after cycloleucine (30 mM final) treatment. […]
After placing the plates on a Tokai Hit stage top incubator (37° C. and 5% CO2), live fluorescence images were taken with a Nikon Eclipse Ti-E microscope fitted with a CoolSnap HQ2 CCD camera (Photometrics) through a 40× air objective (NA 0.75). […]

The next data set has as its system HEK293T cells. Kind of data set: SAM sensor imaging in HEK293T cells. Format: cell-based. Particulars: 30 mM cycloleucine, within 30 minutes. The procedure: FIG. 4A is a schematic showing the design of the Squash-SAM sensor transducer library. The SAM-III aptamer (top) was fused to Squash (bottom) through a transducer helix (middle). The sensor was selected from a library of randomized transducer sequences generated using the sprouts/clips method. FIG. 4B is a bar graph showing the results of an experiment in which, after three rounds of SELEX, two Squash-SAM sensors, 5-1 and 4-2, were tested for SAM-induced fluorescence. Squash-SAM sensor RNAs (1 μM) were incubated with 10 μM DFHO and 0 or 0.1 mM SAM for 1 hour at 37° C. and then fluorescence was measured (ex. 495 nm; em. 562 nm). Data represent mean values±s.d. for n=3 independent experiments. FIGS. 4C-4D are plots showing the kinetics of fluorescence activation (FIG. 4C) and deactivation (FIG. 4D) of Squash-SAM sensors. Sensor activation was induced by adding 0.1 mM SAM to 1 μM sensor RNAs and 10 μM DFHO at 37° C. Deactivation was measured after removal of SAM by gel filtration. […] SAM binding activates the orange fluorescence by promoting Squash folding and subsequent binding with DFHO. The constitutive green fluorescence of Broccoli-BI is used for normalization, thus eliminating the confounding effect of cell-to-cell variation in sensor expression level, and different fluorescence measurements in thick vs. thin parts of the cell. […] The ratio was measured at 10 minute time intervals. […]

A short description of data set [1]: Fluorescence activation of DFAME by aptamers in vitro. It counts as biochemical. Conditions: 20 μM RNA, 2 μM dye. The procedure:
To test whether Beetroot can activate DFHO, the fluorescence emission spectrum of the Beetroot-DFHO complex was measured. In brief, 20 μM Beetroot and 2 μM DFHO were mixed, and the fluorescence emission of the Beetroot-DFHO complex was measured. […] To test whether Beetroot can activate DFHBI-1T, the fluorescence emission spectrum of the Beetroot-DFHBI-1T complex was measured using the same protocol described in FIG. 32A. […] To test whether Beetroot can activate BI, the fluorescence emission spectrum of the Beetroot-BI complex was measured using the same protocol described in FIG. 32A. […] To test whether Corn can activate DFAME, the fluorescence emission spectrum of the Corn-DFAME complex was measured using the same protocol described in FIG. 32A.
The eluted RNAs were then ethanol precipitated, reverse transcribed, PCR amplified and in vitro transcribed to yield the pool for the next SELEX round. The presence of fluorescent RNA species in each pool was assessed by mixing 20 μM RNA and 10 μM DFAME and measuring fluorescence emission of this solution on a fluorometer in comparison with the fluorophore alone. At this point, RNAs were cloned into bacterial expression plasmids for FACS-based screening.
dsDNA encoding the top-performing RNA sequences from the brightest bacterial colonies was PCR amplified from the purified plasmids. […] The resulting RNA was then purified using Zymo RNA concentrator columns and quantified by absorbance using a Thermo Scientific NanoDrop 2000 spectrophotometer. For absorption, excitation and emission spectra measurements, “excess RNA” conditions and limiting amount of fluorophore was used to ensure that no free fluorophore contributes to the absorbance or fluorescence signal. The RNA concentration used for fluorescence and absorbance measurements was 20 μM and 50 μM, respectively, while the dye concentration was 2 μM and 5 μM, respectively. All in vitro RNA properties were measured in 40 mM HEPES pH 7.4, 100 mM KCl, 5 mM MgCl2 buffer, unless specified.

A short description of data set [2]: On and off rates of aptamer binding to DFHO. Conditions: 50 nM RNA. The procedure: FIGS. 7A-7H provide photophysical and biophysical characterization of Squash. […] Excess RNA was used to ensure binding of nearly all fluorophore. […] Data represent mean values±s.d. for n=3 independent experiments. […] The fluorescence signal trace was fitted with a monoexponential curve to extract kobs. kobs was plotted as a function of total RNA (50 nM RNA) and fluorophore concentration. kon and koff were extracted as the slope and intercept, respectively. Squash koff (0.014±0.008 s^−1) is very similar to that of Corn (0.018±0.002 s^−1). kon for Squash-DFHO (162300±8100 M^−1 s^−1) is seven-times higher than Corn-DFHO (23000±3000 M^−1 s^−1) which could be due to the high folding of Squash. […]
To measure on and off rates of Squash binding to DFHO, the same protocol that was reported previously to measure kinetic rates for Spinach-DFHBI was used (Han et al., “Understanding the Photophysics of the Spinach-DFHBI RNA Aptamer-Fluorogen Complex to Improve Live-Cell RNA Imaging,” J. Am. Chem. Soc. 135:19033-19038 (2013), which is hereby incorporated by reference in its entirety). Briefly, 50 nM RNA was mixed with different amounts of DFHO and binding kinetics was monitored on the fluorimeter as fluorescence signal increases. Each fluorescence signal trace was fitted with a monoexponential curve and the observed rate constant (kobs) was extracted. […]

Data set [3] in a line: Photophysical properties of fluorophores and RNA-fluorophore complexes (Squash study). Format: physicochemical. Particulars: 10 μM RNA, 1 μM DFHO. As to the method:
All RNAs used for in vitro studies (except the initial hits from SELEX and the DE2-6 mutants) were purified using 8% denaturing PAGE (7M urea) and eluted in 0.3 M NaOAc (pH 5.2) overnight. The RNA was ethanol precipitated and quantified using absorbance in a NanoDrop 2000 spectrometer. All in vitro RNA properties were measured in 40 mM HEPES-KOH (pH 7.4), 100 mM KCl, 0.5 mM MgCl2 buffer unless specified.
Absorption, excitation, and emission spectra were measured using conditions where the RNA is in excess and the fluorophore is limiting to ensure that no free fluorophore contributes to the absorbance or fluorescence signal (FIGS. 7A-7D).
All quantum yields were determined by comparing each RNA-fluorophore complex with Broccli-DFHBI-1T or Corn-DFHO. All measurements for quantum yield were taken in the presence of excess RNA (10 μM final) compared to the fluorophores (0.2 μM final) to avoid interference from unbound fluorophore. The integral of the emission spectra for each Squash-fluorophore complex was compared with the corresponding integrals for Broccoli or Corn to calculate the quantum yield.

For `NC1(C(=O)O)CCCC1` [cycloleucine], the “SAM levels after cycloleucine” value in the data set with mES cells is recorded as “rapid drop of cellular SAM levels; also recorded: markedly depleted”; with HCT116 cells it was “marked drop in SAM”. Further, the “Sensor signal (SAM level) after cycloleucine” value in the data set with HEK293T cells is on record as “rapid decrease in fluorescence; also recorded: markedly reduced”.
The koff is a measure of how fast the partners let go of each other. Take “Corn: previously reported RNA aptamer that homodimerizes and activates DFHO, SEQ ID NO:103 (CGAGGAAGGAGGUCUGAGGAGGUCACUG; RNA, backbone not given here) [reference compound]”: the “Binding and activation of DFAME fluorescence” value in data set [1] was “weakly binds and activates; also recorded: only weakly bind and activate”. The compound also registered a koff in data set [2] of 0.018 ± 0.002 s⁻¹. The “Emission maxima with DFHO” value in data set [3] is given as 545 nm.

Source of the values: US20250043290A1, “RNA SEQUENCES THAT INDUCE FLUORESCENCE OF SMALL MOLECULE FLUOROPHORES, MOLECULAR COMPLEXES, SENSORS, AND METHODS OF USE THEREOF” (CORNELL UNIVERSITY, priority 2021, published 2025).
